{
  "source": "patent US11578056B2",
  "about": "“Solid forms comprising (S)-2-(2,6-dioxopiperidin-3-yl)-4-((2-fluoro-4-((3-morpholinoazetidin-1-yl)methyl)benzyl)amino)isoindoline-1,3-dione and salts thereof, and compositions comprising and methods of using the same” (Celgene Corporation, priority 2019, dated 2023)",
  "assay_in_all_cases": "Hematological cell line viability/apoptosis flow cytometry assay",
  "format_in_all_cases": "cell-based",
  "key": {"CI cell line": {"system": "CI cell line", "settings": "CI (CLL), 120 h", "method": "(§1) Cell Proliferation and Viability Assay Using Hematological Cell Lines: The following exemplary anti-proliferative assay uses exemplary hematological cell lines in the following. The in vitro growth inhibitory activity of Compound 1 described herein was evaluated using a 384-well flow cytometry assay.\n(§2) The cell lines were plated in 384-well flat bottom plates and assessed with increasing concentrations of compound ranging from 0.00015 to 10 μM or dimethyl sulfoxide (DMSO) control. The final concentration of DMSO was 0.1% (v/v). Following the addition of Compound 1 or DMSO and incubation for 120 hours, cell number and cell death were analyzed by flow cytometry (Attune®, Thermo Fisher) using Annexin V and the live-cell impermeant DNA dye, DRAQ7. Phosphatidylserine translocates from the inner layer to the outer layer of the cell membrane early in apoptosis and Annexin V binds to the exposed phosphatidylserine found on the surface of an apoptotic cell. The vital dye DRAQ7 is excluded by intact live cells and only stains cells that have died as a result of apoptosis or necrosis.\n(§3) Flow cytometry data analysis was then performed using the Flow Jo_v10 software to determine the number of viable cells (Annexin V and DRAQ7 double negative staining cells) and percentage of apoptotic cells (Annexin V positive cells) for each condition. The live cell count for every concentration was normalized to the DMSO control (considered as 100%) to calculate the percentage of viable cells remaining after treatment and graphed using GraphPad Prism 7.03. The IC50 (50% inhibitory concentration) and Emax (maximum efficacy achieved) values were then calculated by performing nonlinear regression curve fitting using log(inhibitor) vs. normalized response—variable slope analysis on GraphPad Prism 7.03. Area under the curve (AUC) was calculated by performing area under curve analysis on GraphPad Prism 7.03. Similarly, for apoptosis analysis, the percentage of apoptosis combining both “early” (Annexin V positive and DRAQ7 negative) and “late” apoptosis (Annexin V and DRAQ7 positive) cell gates relative to DMSO was graphed using GraphPad Prism 7.03. The AUC, EC50 (concentration of compound that produces half-maximal apoptosis response) and Ymax (maximal percentage of apoptosis achieved) values from apoptosis curves were calculated by performing area under curve analysis and nonlinear regression curve fitting using log(agonist) vs. normalized response—Variable slope analysis on GraphPad Prism 7.03.\n(§4) Dose-response proliferation curves for the panel of hematological cell lines and non-linear curve-fit regression were used to determine IC50, AUC, and Emax for % viable cells (Emax for viability varies between 100 at low doses and 0 at high doses, which corresponds to inhibition of all viable cells), and dose-response apoptosis curves were used to determine the EC50, AUC, and Ymax for % apoptosis (Ymax for apoptosis varies from 0 at low doses and 100 at higher doses which corresponds to death of all cells). Tumor cells were exposed to serial dilutions (0.00015 to 10 μM) of Compound 1 or dimethyl sulfoxide (DMSO) control for 5 days. Viability and apoptosis for all cell lines was determined by Annexin V/7-aminoactinomycin D (7-AAD) flow cytometry."}, "L-363 cell line": {"system": "L-363 cell line", "settings": "L-363 (MM, PCL), 120 h", "method": "as §1, §2, §3, §4"}, "SU-DHL-16 cell line": {"system": "SU-DHL-16 cell line", "settings": "SU-DHL-16 (DLBCL GCB); 120 h", "method": "as §1, §2, §3, §4"}, "U-2940 cell line": {"system": "U-2940 cell line", "settings": "U-2940 (DLBCL PMBL); 120 h", "method": "as §1, §2, §3, §4"}, "SU-DHL-10 cell line": {"system": "SU-DHL-10 cell line", "settings": "SU-DHL-10 (DLBCL GCB); 120 h", "method": "as §1, §2, §3, §4"}, "Mec1 cell line": {"system": "Mec1 cell line", "settings": "Mec1 (CLL), 120 h", "method": "as §1, §2, §3, §4"}, "RC-K8 cell line": {"system": "RC-K8 cell line", "settings": "RC-K8 (DLBCL ABC); 120 h", "method": "as §1, §2, §3, §4"}, "HG3 cell line": {"system": "HG3 cell line", "settings": "HG3 (CLL), 120 h", "method": "as §1, §2, §3, §4"}, "U-2946 cell line": {"system": "U-2946 cell line", "settings": "U-2946 (DLBCL), 120 h", "method": "as §1, §2, §3, §4"}, "RL cell line": {"system": "RL cell line", "settings": "RL (FL); 120 h", "method": "as §1, §2, §3, §4"}, "OPM-2 cell line": {"system": "OPM-2 cell line", "settings": "OPM-2 (MM), 120 h", "method": "as §1, §2, §3, §4"}, "BL-41 cell line": {"system": "BL-41 cell line", "settings": "BL-41 (BL), 120 h", "method": "as §1, §2, §3, §4"}, "ROS-50 cell line": {"system": "ROS-50 cell line", "settings": "ROS-50 (DLBCL), 120 h", "method": "as §1, §2, §3, §4"}, "[1]": {"settings": "Homo sapiens, read-out: % Viable Cells IC50"}},
  "note": "pEC50, pIC50: −log10 of the molar value.",
  "data": [
    {"smiles": "O=C1CC[C@H](N2C(=O)c3cccc(NCc4ccc(CN5CC(N6CCOCC6)C5)cc4F)c3C2=O)C(=O)N1", "note": "[Compound 1, (S)-2-(2,6-dioxopiperidin-3-yl)-4-((2-fluoro-4-((3-morpholinoazetidin-1-yl)methyl)benzyl)amino)isoindoline-1,3-dione]", "values": [
      {"measurement": "% Viable Cells AUC", "setting": "CI cell line", "result": 603.9},
      {"measurement": "% Viable Cells Emax", "setting": "CI cell line", "result": 53.58, "unit": "%"},
      {"measurement": "Apoptosis AUC", "setting": "CI cell line", "result": 123.2},
      {"measurement": "Apoptosis Ymax", "setting": "CI cell line", "result": 13.01, "unit": "%"},
      {"measurement": "pEC50", "setting": "CI cell line", "result": 7.64},
      {"measurement": "pIC50", "setting": "CI cell line; read-out: % Viable Cells IC50", "result": 5.01},
      {"measurement": "pEC50", "setting": "L-363 cell line; Homo sapiens", "result": 5.10},
      {"measurement": "pIC50", "setting": "L-363 cell line; [1]", "result": 9.00},
      {"measurement": "% Viable Cells AUC", "setting": "L-363 cell line", "result": 309.1},
      {"measurement": "% Viable Cells Emax", "setting": "L-363 cell line", "result": 27.6, "unit": "%"},
      {"measurement": "Apoptosis AUC", "setting": "L-363 cell line", "result": 2.954},
      {"measurement": "Apoptosis Ymax", "setting": "L-363 cell line", "result": 2, "unit": "%"},
      {"measurement": "% Viable Cells AUC", "setting": "SU-DHL-16 cell line", "result": 149.7},
      {"measurement": "% Viable Cells Emax", "setting": "SU-DHL-16 cell line", "result": 7.137, "unit": "%"},
      {"measurement": "Apoptosis AUC", "setting": "SU-DHL-16 cell line", "result": 492.6},
      {"measurement": "Apoptosis Ymax", "setting": "SU-DHL-16 cell line", "result": 60.79, "unit": "%"},
      {"measurement": "% Viable Cells AUC", "setting": "U-2940 cell line", "result": 70.43},
      {"measurement": "% Viable Cells Emax", "setting": "U-2940 cell line", "result": 5.192, "unit": "%"},
      {"measurement": "Apoptosis AUC", "setting": "U-2940 cell line", "result": 792.5},
      {"measurement": "Apoptosis Ymax", "setting": "U-2940 cell line", "result": 82.19, "unit": "%"},
      {"measurement": "% Viable Cells AUC", "setting": "SU-DHL-10 cell line", "result": 10.36},
      {"measurement": "% Viable Cells Emax", "setting": "SU-DHL-10 cell line", "result": 0.6716, "unit": "%"},
      {"measurement": "Apoptosis AUC", "setting": "SU-DHL-10 cell line", "result": 903},
      {"measurement": "Apoptosis Ymax", "setting": "SU-DHL-10 cell line", "result": 92.27, "unit": "%"},
      {"measurement": "pEC50", "setting": "Mec1 cell line; Homo sapiens", "result": 6.68},
      {"measurement": "pIC50", "setting": "Mec1 cell line; [1]", "result": "< 5.00"},
      {"measurement": "% Viable Cells AUC", "setting": "Mec1 cell line", "result": 866.5},
      {"measurement": "% Viable Cells Emax", "setting": "Mec1 cell line", "result": 83.45, "unit": "%"},
      {"measurement": "Apoptosis AUC", "setting": "Mec1 cell line", "result": 302.4},
      {"measurement": "Apoptosis Ymax", "setting": "Mec1 cell line", "result": 36.61, "unit": "%"},
      {"measurement": "% Viable Cells AUC", "setting": "RC-K8 cell line", "result": 115.7},
      {"measurement": "% Viable Cells Emax", "setting": "RC-K8 cell line", "result": 10.06, "unit": "%"},
      {"measurement": "Apoptosis AUC", "setting": "RC-K8 cell line", "result": 349.2},
      {"measurement": "Apoptosis Ymax", "setting": "RC-K8 cell line", "result": 26.31, "unit": "%"},
      {"measurement": "% Viable Cells AUC", "setting": "HG3 cell line", "result": 676.2},
      {"measurement": "% Viable Cells Emax", "setting": "HG3 cell line", "result": 59.58, "unit": "%"},
      {"measurement": "Apoptosis AUC", "setting": "HG3 cell line", "result": 131.5},
      {"measurement": "Apoptosis Ymax", "setting": "HG3 cell line", "result": 14.28, "unit": "%"},
      {"measurement": "pEC50", "setting": "HG3 cell line; HG-3", "result": 6.96},
      {"measurement": "pIC50", "setting": "HG3 cell line; HG-3, read-out: % Viable Cells IC50", "result": "< 5.00"},
      {"measurement": "% Viable Cells AUC", "setting": "U-2946 cell line", "result": 45.47},
      {"measurement": "% Viable Cells Emax", "setting": "U-2946 cell line", "result": 0.4821, "unit": "%"},
      {"measurement": "Apoptosis AUC", "setting": "U-2946 cell line", "result": 762.6},
      {"measurement": "Apoptosis Ymax", "setting": "U-2946 cell line", "result": 93.34, "unit": "%"},
      {"measurement": "pEC50", "setting": "U-2946 cell line", "result": 6.72},
      {"measurement": "pIC50", "setting": "U-2946 cell line; read-out: % Viable Cells IC50", "result": 8.34},
      {"measurement": "% Viable Cells AUC", "setting": "RL cell line", "result": 234.8},
      {"measurement": "% Viable Cells Emax", "setting": "RL cell line", "result": 21.55, "unit": "%"},
      {"measurement": "Apoptosis AUC", "setting": "RL cell line", "result": 115.9},
      {"measurement": "Apoptosis Ymax", "setting": "RL cell line", "result": 13.93, "unit": "%"},
      {"measurement": "pEC50", "setting": "OPM-2 cell line; Homo sapiens", "result": 5.88},
      {"measurement": "pIC50", "setting": "OPM-2 cell line; [1]", "result": 9.52},
      {"measurement": "% Viable Cells AUC", "setting": "OPM-2 cell line", "result": 210.5},
      {"measurement": "% Viable Cells Emax", "setting": "OPM-2 cell line", "result": 6.65, "unit": "%"},
      {"measurement": "Apoptosis AUC", "setting": "OPM-2 cell line", "result": 212.6},
      {"measurement": "Apoptosis Ymax", "setting": "OPM-2 cell line", "result": 63.00, "unit": "%"},
      {"measurement": "% Viable Cells AUC", "setting": "BL-41 cell line", "result": 270.2},
      {"measurement": "% Viable Cells Emax", "setting": "BL-41 cell line", "result": 96.65, "unit": "%"},
      {"measurement": "Apoptosis AUC", "setting": "BL-41 cell line", "result": 288.2},
      {"measurement": "Apoptosis Ymax", "setting": "BL-41 cell line", "result": 79.5, "unit": "%"},
      {"measurement": "pEC50", "setting": "BL-41 cell line; Homo sapiens", "result": 5.16},
      {"measurement": "pIC50", "setting": "BL-41 cell line; [1]", "result": 5.22},
      {"measurement": "% Viable Cells AUC", "setting": "ROS-50 cell line", "result": 762.1},
      {"measurement": "% Viable Cells Emax", "setting": "ROS-50 cell line", "result": 65.57, "unit": "%"},
      {"measurement": "Apoptosis AUC", "setting": "ROS-50 cell line", "result": 87.92},
      {"measurement": "Apoptosis Ymax", "setting": "ROS-50 cell line", "result": 10.9, "unit": "%"},
      {"measurement": "pEC50", "setting": "ROS-50 cell line", "result": 6.48},
      {"measurement": "pIC50", "setting": "ROS-50 cell line; read-out: % Viable Cells IC50", "result": "< 5.00"}
    ]}
  ]
}
